Measurements published in US10752626B2, “Iso-citrate dehydrogenase (IDH) inhibitor” (SHANGHAI METON PHARMACEUTICAL CO., LTD, priority 2016, dated 2020).

Legend:
[1] = molecular target: IDH1 R132C (Homo sapiens (Human), UniProt O75874, R132C); test: Biochemical assay for inhibition of mutant IDH1 R132C; conditions: tested in triplet
Description: The present disclosure provides a biochemical assay method for detecting the IDH inhibition and selectivity of the compounds by detecting IDH enzyme activity directly.
Wild-type IDH enzyme could convert NADP^+ to NADPH when it catalyzes the α-KG producing reaction. Mutant IDH enzyme could convert NADPH to NADP^+ when it catalyzes the D-2-HG producing reaction. So the activity of wild-type and mutant IDH1/2 could be measured by monitoring NADPH level change: in the reaction catalyzed by wild-type IDH1/2, the newly generated NADPH is utilized instantly by coupled diaphorase-resazurin reaction to generate resorufin which is fluorescent (at Excitation 544 nm, Emission 590 nm) and thus NADPH is monitored indirectly; while in the reaction catalyzed by mutant IDH1/2, NADPH is directly monitored as it is fluorescent (at Excitation 340 nm, Emission 460 nm). By monitoring the change of NADPH level in the reaction, the enzyme activity could be determined rapidly and efficiently, IC50 of a compound could also be assayed.
The test compounds were prepared into 50 mM stock solutions in DMSO and stored at −20° C. Each test compound stock was further diluted to obtain a 100× stock solution at a concentration of 200 μM, 100 μM, 50 μM, 25 μM, 12.5 jμM, 6.25 μM and 3.125 μM, respectively, for the final use on the day of test.
Inhibition of Mutant IDHJ (R132H or R132C):
Solution A was prepared by combining 1 M Tris-HCl pH7.5 (300 μL), 5 M NaCl (450 μL), 1 M MgCl2 (150 μL), 1 M DTT (15 μL), 20 mg/mL BSA (37.5 μL), 20 mM NADPH (20 μL), and 0.5 mM α-KG (40 μL), followed by adding deionized water to a final volume of 15 mL.
Reaction buffer was prepared by combining 1 M Tris-HCl pH 7.5 (200 μL), 5 M NaCl (300 μL), 1 M MgCl2 (100 μL), 1 M DTT (10 μL) and 20 mg/mL BSA (25 μL), followed by adding deionized water to a final volume of 10 mL.
Solution B was prepared by combining the reaction buffer (5 mL) and […] IDH1-R132H (5.21 μL) or 107 μM IDH1-R132C (4.67 μL).
148 μL Solution A was added into each sample well of a 96-well plate P1, and then 2 μL of the test compound solution at each concentration and 2 μL of DMSO (negative control/blank) were added into individual sample well respectively. 50 μL of Solution B was added into each of the sample wells having test compounds and one sample well having DMSO only, and 50 μL of reaction buffer was added into another sample well having DMSO only, respectively. P1 was put into BioTek Synergy H4 Microplate reader (BioTek Instruments Inc., Winooski, U.S.), and the program was set as follows: 37° C., shake plate 5 seconds, run kinetic mode, total detection time 20 min, detection intervals 40 seconds, detection mode fluorescence (at Excitation 340 nm, Emission 460 nm). The data were exported, the relative enzyme activity and the half-maximal inhibitory concentration (IC50) for the test compound were calculated. Relative enzyme activity was calculated as the absolute value of the slope of the Emission 460 reads of each well plotted against time (which represents the conversion rate of ca-KG to 2-HG through IDH1 modulated utilization of NADPH). The Dose-response curve was drawn and the IC50 was calculated via fitting. The IDH inhibition and selectivity of each test compound can be evaluated according to the effect of the compounds on the IDH enzyme activity.
The IDH inhibition activity of the compounds were assessed according to Test 5 of the Biological evaluation section. The test for mutant IDH1 R132H/R132C inhibition of each compound was carried out in triplet. For IDH1 R132H, the enzyme activity of exemplary Compounds 16, 21, 22, 23, 24 and 31 is plotted as a function of logarithm of the concentration of the compound in FIGS. 8A-8C, 9A-9C, 10A-10C, 11A-11C, 12A-12C and 13A-13C, respectively. […]

[2] = Metabolic stability in dog liver microsome; conditions: for K: Mean; for microsomal CLint at 1 μM / half-life at 1 μM: microsomes, pH 7.4
Experimental: The liver microsomes of mouse, rat, dog, monkey and human were purchased from Corning Inc., and were stored at −60° C. prior to use. The acetonitrile and NADPH were purchased from Honeywell International Inc. (New Jersey, U.S.) and Roche Inc. (Basel, Swiss).
Reactions were initiated by adding NADPH to a final concentration of 1 mM. The final volume of each reaction mixture was 0.2 ml, and all reactions were performed in duplicate. At each set time point (0, 5, 15, 30 and 60 min), a small aliquot (e.g., 20 μl) was transferred from the reaction system into ice-cold internal standard (IS) containing acetonitrile to quench the reaction and to precipitate the protein. After vortex and centrifuge at 3700 rpm for 10 min, the supernatant was injected into LC-MS/MS for analysis.
In vitro microsomal clearance was estimated based on determination of elimination half-life (T1/2) of compounds disappearance from their initial concentrations. Peak area ratios of each compound (test or control) to IS was calculated. Ln (% Control) versus Incubation Time (min) curve was plotted, and the slope of a linear fitting line was calculated. Drug elimination rate constant k (min^−1), T1/2 (min), and in vitro intrinsic clearance CLint (mL·min^−1·mg^−1 proteins) was calculated according to the following equations: k=−slope T1/2=0.693/k CLint=k/Cprotein where Cprotein (mg·mL^−1) is the microsomal protein concentration in the incubation system. Test 3: Metabolic Stability Assay in Mouse Plasma
In this study, the metabolic stability of the compounds was assessed in mouse, rat, dog, monkey and human liver microsome according to the method disclosed in Test 2 of the Biological evaluation section.

Chain of IDH1 R132C (O75874 whole entry R132C): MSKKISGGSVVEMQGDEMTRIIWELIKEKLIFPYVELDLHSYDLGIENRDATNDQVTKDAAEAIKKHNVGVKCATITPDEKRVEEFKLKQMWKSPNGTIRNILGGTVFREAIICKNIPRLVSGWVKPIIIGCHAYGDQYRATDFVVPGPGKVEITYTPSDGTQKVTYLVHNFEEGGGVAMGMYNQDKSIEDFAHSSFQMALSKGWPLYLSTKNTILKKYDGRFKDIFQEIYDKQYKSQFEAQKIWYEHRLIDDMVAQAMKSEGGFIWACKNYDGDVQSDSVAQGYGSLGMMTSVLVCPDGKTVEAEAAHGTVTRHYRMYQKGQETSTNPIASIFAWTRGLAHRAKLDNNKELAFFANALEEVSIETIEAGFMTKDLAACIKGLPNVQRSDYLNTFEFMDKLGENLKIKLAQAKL

SMILES | IC50 [1] [µM] | other results
CCN1Cc2c(ccnc2N[C@@H](C)c2ccc(Br)cc2)C1=O [Compound 1, (S)-4-(1-(4-bromophenyl)ethylamino)-2-ethyl-2,3-dihydro-1H-pyrrolo[3,4-c]pyridin-1-one] | 10 to 15 | 
CCN1Cc2c(ccnc2N[C@@H](C)c2ccc(F)cc2)C1=O [Compound 2, (S)-2-ethyl-4-(1-(4-fluorophenyl)ethylamino)-2,3-dihydro-1H-pyrrolo[3,4-c]pyridin-1-one] | 10 to 15 | 
CCN1Cc2c(ccnc2N[C@@H](C)c2ccc(C)cc2)C1=O [Compound 3, (S)-2-ethyl-4-(1-p-tolylethylamino)-2,3-dihydro-1H-pyrrolo[3,4-c]pyridin-1-one] | 10 to 15 | 
C[C@H](Nc1nccc2c1CN(C1CC1)C2=O)c1ccccc1 [Compound 4, (S)-2-cyclopropyl-4-(1-phenylethylamino)-2,3-dihydro-1H-pyrrolo[3,4-c]pyridin-1-one] | 10 to 15 | 
CCCCN1Cc2c(ccnc2N[C@@H](C)c2ccccc2)C1=O [Compound 5, (S)-2-butyl-4-(1-phenylethylamino)-2,3-dihydro-1H-pyrrolo[3,4-c]pyridin-1-one] | 10 to 15 | 
C[C@H](Nc1nccc2c1CN(Cc1ccccc1)C2=O)c1ccccc1 [Compound 6, (S)-2-benzyl-4-(1-phenylethylamino)-2,3-dihydro-1H-pyrrolo[3,4-c]pyridin-1-one] | 10 to 15 | 
COc1ccc(CN2Cc3c(ccnc3N[C@@H](C)c3ccccc3)C2=O)cc1 [Compound 7, (S)-2-(4-methoxybenzyl)-4-(1-phenylethylamino)-2,3-dihydro-1H-pyrrolo[3,4-c]pyridin-1-one] | 10 to 15 | 
CC(C)N1Cc2c(ccnc2N[C@@H](C)c2ccccc2)C1=O [Compound 8, (S)-2-isopropyl-4-(1-phenylethylamino)-2,3-dihydro-1H-pyrrolo[3,4-c]pyridin-1-one] | 10 to 15 | 
COCCN1Cc2c(ccnc2N[C@@H](C)c2ccccc2)C1=O [Compound 9, (S)-2-(2-methoxyethyl)-4-(1-phenylethylamino)-2,3-dihydro-1H-pyrrolo[3,4-c]pyridin-1-one] | 10 to 15 | 
CCN1Cc2c(ccnc2N[C@@H](C)c2ccccc2)C1=O [Compound 10, (S)-2-ethyl-4-(1-phenylethylamino)-2,3-dihydro-1H-pyrrolo[3,4-c]pyridin-1-one] | 10 to 15 | 
CCN1Cc2c(ccnc2N[C@@H](C)c2ccc(OC)cc2)C1=O [Compound 11, (S)-2-ethyl-4-(1-(4-methoxyphenyl)ethylamino)-2,3-dihydro-1H-pyrrolo[3,4-c]pyridin-1-one] | 10 to 15 | 
CCOC(=O)c1ccc([C@H](C)Nc2nccc3c2CN(CC)C3=O)cc1 [Compound 12, (S)-ethyl-4-(1-(2-ethyl-1-oxo-2,3-dihydro-1H-pyrrolo[3,4-c]pyridin-4-ylamino)ethyl)benzoate] | 10 to 15 | 
CCN1Cc2c(ccnc2N[C@@H](C)c2ccc(C(=O)Nc3ccccc3)cc2)C1=O [Compound 13, (S)-4-(1-(2-ethyl-1-oxo-2,3-dihydro-1H-pyrrolo[3,4-c]pyridin-4-ylamino)ethyl)-N-phenylbenzamide] | 10 to 15 | 
CCN1Cc2c(ccnc2N[C@@H](C)c2ccc(-c3cn(C)nn3)cc2)C1=O [Compound 14, (S)-2-ethyl-4-(1-(4-(1-methyl-1H-1,2,3-triazol-4-yl)phenyl)ethylamino)-2,3-dihydro-1H-pyrrolo[3,4-c]pyridin-1-one] | 10 to 15 | 
CCN1Cc2c(ccnc2N[C@@H](C)c2ccc(Oc3cccc(C)c3)cc2)C1=O [Compound 15, (S)-2-ethyl-4-((1-(4-(m-tolyloxy)phenyl)ethyl)amino)-2,3-dihydro-1H-pyrrolo[3,4-c]pyridin-1-one] | ≤ 1.5 | 
CCN1Cc2c(ccnc2N[C@@H](C)c2ccc(Oc3ccccc3C)cc2)C1=O [Compound 17, (S)-2-ethyl-4-(1-(4-(o-tolyloxy)phenyl)ethylamino)-2,3-dihydro-1H-pyrrolo [3,4-c]pyridin-1-one] | ≤ 1.5 | 
CCN1Cc2c(ccnc2N[C@@H](C)c2ccc(Oc3ccccc3)cc2)C1=O [Compound 18, (S)-2-ethyl-4-(1-(4-phenoxyphenyl)ethylamino)-2,3-dihydro-1H-pyrrolo[3,4-c]pyridin-1-one] | ≤ 1.5 | 
CCN1Cc2c(ccnc2N[C@@H](C)c2ccc(Oc3ccc(OC)cc3)cc2)C1=O [Compound 19, (S)-2-ethyl-4-(1-(4-(4-methoxyphenoxy)phenyl)ethylamino)-2,3-dihydro-1H-pyrrolo[3,4-c]pyridin-1-one] | ≤ 1.5 | 
CCN1Cc2c(ccnc2N[C@@H](C)c2ccc(Oc3ccc(F)cc3)cc2)C1=O [Compound 20, (S)-2-ethyl-4-(1-(4-(4-fluorophenoxy)phenyl)ethylamino)-2,3-dihydro-1H-pyrrolo[3,4-c]pyridin-1-one] | 1.5 to 10 | 
Cc1ncc2n1-c1ccc(Cl)cc1C(c1ccccc1F)=NC2 [Positive control, Midazolam, reference compound] |  | K ([2]; dog liver microsome): 0.140 min⁻¹; microsomal CLint at 1 μM ([2]; dog): 702 µL/min/mg; K ([2]; human liver microsome): 0.0612 min⁻¹; half-life at 1 μM ([2]; human): 11.3 min; microsomal CLint at 1 μM ([2]; human): 306 µL/min/mg; K ([2]; monkey liver microsome): 0.211 min⁻¹; half-life at 1 μM ([2]; monkey): 3.29 min; microsomal CLint at 1 μM ([2]; monkey): 1050 µL/min/mg; K ([2]; mouse liver microsome): 0.0964 min⁻¹; half-life at 1 μM ([2]; mouse): 7.19 min; microsomal CLint at 1 μM ([2]; mouse): 482 µL/min/mg; K ([2]; rat liver microsome): 0.174 min⁻¹; half-life at 1 μM ([2]; rat): 3.98 min; microsomal CLint at 1 μM ([2]; rat): 871 µL/min/mg
